Read-outs that look alike come from different tables or passages of the source.
Tests used:
HIV-1 (strain 3B) = test: HIV assay: reversal of the cytopathic effect of HIV infection in MT4 cells (propidium iodide dye uptake); assay type: cell-based; conditions: Human immunodeficiency virus 1, 120 h, Anti-HIV-1 activity, day 5 post infection
Protocol: Anti-HIV activity of compounds of the invention was determined using the method of Averett D.R., J.Virol. Methods, […], 23, 263-276, by measuring the ability of the compound to reverse the cytopathic effect of HIV infection. This was determined by a quantitative assessment of cell growth monitored at the fifth day post infection by a propidium iodide dye uptake test. MT4 cells were incubated with 100XTCID50 of HIV-1 (strain 3B) or HIV-2 (strain ZY) for one hour prior to addition of the compound in six different concentrations varying from 2 to 200 µM. The cells were allowed to incubate for five days at 37°C. On day 5, NP-40, a detergent, was added to a final concentration of 0.5% immediately prior to analysis. Cell number was determined using a method which measures the fluorescence of a dye (propidium iodide) which binds to DNA. Since the amount of DNA is directly proportional to cell number, this fluorescence assay is an indication of cell growth. While uninfected cells double in cell number several times during the five days duration of the assay, HIV-infected cells grow very little, if at all. A compound which reverses the cytopathic effect of HIV would allow for rapid cell growth, approaching that of the mock-infected cells. […]

male Lewis rats = test: Carrageenan pleurisy assay (4 hour); assay type: in vivo; conditions: 4 h after carrageenan, relative to solvent (vehicle) control animals; for % INHIBITION CELLS: inflammatory cells (neutrophils) in pleural exudate; for % INHIBITION EDEMA: pleural edema
Protocol: The antiinflammatory activity of compounds of the invention was determined by the procedure of Vinegar, R. et al., Proc. Soc. Exp. Biol. Med., 1981, 168, 24-32, using male Lewis rats of 150 ± 20 grams. The carrageenan dose was 0.075 mg/rat. Pleural exudate was harvested four hours after injection of carageenan. Acute antiinflammatory activity was determined by inhibition of pleural edema and infammatory cells (neutrophils) from a negative (vehicle) control group.
Acute Anti-inflammatory Activity of Compounds in the 4 Hour Carrageenan Pleurisy Assay in Rats

[1] = Cytotoxicity: inhibition of cell growth; assay type: cell-based; conditions: human
Protocol: Compounds of the invention were tested for the inhibition of growth of human T-cells (Molt 4), B-cells (IM9) and CEM cells by the method of Averett, D.R., J. Virol. Methods, 23, 263-276 (1989). Cells were grown as described in Prus, K.L., et al., Cancer Res., 50(6), 1817-1821 (1990).

Compound: COc1cccc(S(=O)(=O)c2cccc(N)c2C#N)c1 [Example 2, 2-Amino-6-[(3-methoxyphenyl)sulfonyl]benzonitrile]
- IC50 (HIV-1 (strain 3B)): 920 ± 40 nM

Compound: Cc1cc(C)cc(S(=O)(=O)c2cccc(N)c2C#N)c1 [Example 4, 2-Amino-6-[(3,5-dimethylphenyl)sulfonyl]benzontrile]
- % INHIBITION CELLS (male Lewis rats; @ 25 MG/KG (IP)): 0%
- % INHIBITION EDEMA (male Lewis rats; @ 25 MG/KG (IP)): 5%
- % INHIBITION CELLS (male Lewis rats; @ 50 MG/KG (PO)): 29%
- % INHIBITION EDEMA (male Lewis rats; @ 50 MG/KG (PO)): 31%
- viability at 100 µM ([1]; cem cells, read-out: % of Cells Surviving at 100 µM): 70%
- viability at 100 µM ([1]; im9 cells, read-out: % of Cells Surviving at 100 µM): 97%
- viability at 100 µM ([1]; molt 4 cells, Molt4, read-out: % of Cells Surviving at 100 µM): 91%
- IC50 (HIV-1 (strain 3B)): 14 ± 1 nM
